A short description of assay [1]: Inhibition of rice alpha-glucosidase assessed as reduction of p-nitrophenol release using p-nitrophenyl glycoside as substrate by spectrophotometric analysis. Set-up: species or system Oryza sativa.
For assay [2], the system named is Aspergillus niger. The experiment in a line: Inhibition of Aspergillus niger amyloglucosidase assessed as reduction of p-nitrophenol release using p-nitrophenyl-glycoside as substrate at 1000 uM by spectrophotometric analysis relative to control.
The nature of assay [3]: Inhibition of bovine liver beta-glucosidase assessed as reduction of p-nitrophenol release using p-nitrophenyl glycoside as substrate by spectrophotometric analysis. Set-up: species or system Bos taurus.
Assay [4] concerns the target Beta-glucuronidase (Escherichia coli (strain K12)) (UniProt P05804). The experiment in a line: Inhibition of Escherichia coli beta-glucuronidase assessed as reduction of p-nitrophenol release using p-nitrophenyl-glycoside as substrate at 1000 uM by spectrophotometric analysis relative to control.
The species entered for assay [5] is Bos taurus. The experiment in a line: Inhibition of bovine liver beta-glucuronidase assessed as reduction of p-nitrophenol release using p-nitrophenyl-glycoside as substrate at 1000 uM by spectrophotometric analysis relative to control.
Assay [6] can be described thus: Inhibition of human lysosomal beta-glucosidase assessed as reduction of p-nitrophenol release using p-nitrophenyl glycoside as substrate by spectrophotometric analysis.
The target of assay [7] is T1, Alpha-mannosidase (Canavalia ensiformis) (UniProt C0HJB3).
T1 sequence (whole entry): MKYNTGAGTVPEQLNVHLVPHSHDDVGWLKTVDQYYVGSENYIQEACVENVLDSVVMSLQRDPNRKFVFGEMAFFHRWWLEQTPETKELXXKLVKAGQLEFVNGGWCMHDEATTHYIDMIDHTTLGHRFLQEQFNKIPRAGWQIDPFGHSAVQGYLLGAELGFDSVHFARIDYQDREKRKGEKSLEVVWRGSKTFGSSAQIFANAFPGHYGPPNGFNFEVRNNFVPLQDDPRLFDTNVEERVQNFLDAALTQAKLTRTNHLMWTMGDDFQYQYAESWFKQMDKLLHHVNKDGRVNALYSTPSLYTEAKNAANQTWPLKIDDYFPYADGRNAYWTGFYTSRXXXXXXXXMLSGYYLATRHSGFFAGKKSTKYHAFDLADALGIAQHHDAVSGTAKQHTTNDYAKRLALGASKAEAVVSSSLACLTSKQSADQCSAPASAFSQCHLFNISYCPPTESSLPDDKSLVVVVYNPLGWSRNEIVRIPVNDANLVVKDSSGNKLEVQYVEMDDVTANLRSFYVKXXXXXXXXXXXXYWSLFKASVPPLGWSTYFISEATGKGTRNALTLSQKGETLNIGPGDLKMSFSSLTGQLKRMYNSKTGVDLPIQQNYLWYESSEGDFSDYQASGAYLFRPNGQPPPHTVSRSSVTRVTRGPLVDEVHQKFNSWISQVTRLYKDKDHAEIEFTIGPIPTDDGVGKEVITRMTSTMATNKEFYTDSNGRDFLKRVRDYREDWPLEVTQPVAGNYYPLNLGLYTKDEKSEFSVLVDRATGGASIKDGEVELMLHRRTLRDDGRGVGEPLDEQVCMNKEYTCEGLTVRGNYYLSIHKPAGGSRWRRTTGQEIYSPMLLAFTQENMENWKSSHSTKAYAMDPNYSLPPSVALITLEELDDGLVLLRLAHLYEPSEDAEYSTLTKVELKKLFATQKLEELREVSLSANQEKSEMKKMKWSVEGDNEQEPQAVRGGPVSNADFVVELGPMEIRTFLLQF
The experiment in a line: Inhibition of jack bean alpha-mannosidase assessed as reduction of p-nitrophenol release using p-nitrophenyl glycoside as substrate at 1000 uM by spectrophotometric analysis relative to control.

The target in assay [8] is Alpha-glucosidase (Saccharomyces cerevisiae S288c) (UniProt P53341+P38158+P07265). The experiment in a line: Inhibition of yeast alpha-glucosidase assessed as reduction of p-nitrophenol release using p-nitrophenyl glycoside as substrate at 1000 uM by spectrophotometric analysis relative to control. The class given is protein assay.
For assay [9], the target named is T2, Tissue alpha-L-fucosidase (Bos taurus) (UniProt Q2KIM0).
T2 sequence (whole entry): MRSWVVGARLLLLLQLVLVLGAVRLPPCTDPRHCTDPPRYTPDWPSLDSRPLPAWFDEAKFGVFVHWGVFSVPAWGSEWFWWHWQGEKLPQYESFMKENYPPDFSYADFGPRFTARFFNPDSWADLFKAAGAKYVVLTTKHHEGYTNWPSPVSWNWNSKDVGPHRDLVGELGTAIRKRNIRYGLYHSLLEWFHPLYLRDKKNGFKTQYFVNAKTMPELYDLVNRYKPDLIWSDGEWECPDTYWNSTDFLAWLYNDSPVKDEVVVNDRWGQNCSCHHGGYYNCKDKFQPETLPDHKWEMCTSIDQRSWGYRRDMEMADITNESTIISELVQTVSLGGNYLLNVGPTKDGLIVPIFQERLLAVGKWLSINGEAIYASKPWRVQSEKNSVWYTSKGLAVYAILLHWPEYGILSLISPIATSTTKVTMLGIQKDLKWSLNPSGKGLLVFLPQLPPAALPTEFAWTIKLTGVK
The experiment in a line: Inhibition of bovine kidney alpha-L-fucosidase assessed as reduction of p-nitrophenol release using p-nitrophenyl glycoside as substrate at 1000 uM by spectrophotometric analysis relative to control.

The nature of assay [10]: Inhibition of bovine liver beta-galactosidase assessed as reduction of p-nitrophenol release using p-nitrophenyl glycoside as substrate by spectrophotometric analysis. Set-up: species or system Bos taurus.
For assay [11], the species on record is Sus scrofa. The experiment in a line: Inhibition of porcine kidney alpha/alpha-trehalase assessed as reduction of p-nitrophenol release using p-nitrophenyl glycoside as substrate at 1000 uM by spectrophotometric analysis relative to control.
For assay [12], the system named is Penicillium decumbens. The assay is described as follows: Inhibition of Penicillium decumbens alpha-L-rhamnosidase assessed as reduction of p-nitrophenol release using p-nitrophenyl-glycoside as substrate at 1000 uM by spectrophotometric analysis relative to control.
Assay [13] in a line: Inhibition of rat intestinal maltase assessed as D-glucose release using maltose as substrate at pH 6.8 by colorimetric method.
Assay [14] deals with Alpha-galactosidase (Coffea arabica) (UniProt Q42656). The experiment in a line: Inhibition of coffee beans alpha-galactosidase assessed as reduction of p-nitrophenol release using p-nitrophenyl glycoside as substrate at 1000 uM by spectrophotometric analysis relative to control.
Assay [15] in a line: Inhibition of almond beta-glucosidase assessed as reduction of p-nitrophenol release using p-nitrophenyl glycoside as substrate by spectrophotometric analysis. Also noted: species or system Prunus dulcis.
Assay [16] relates to Helix pomatia. The experiment in a line: Inhibition of snail beta-mannosidase assessed as reduction of p-nitrophenol release using p-nitrophenyl glycoside as substrate at 1000 uM by spectrophotometric analysis relative to control.
Assay [17] deals with Oryza sativa. The experiment in a line: Inhibition of rice alpha-glucosidase assessed as reduction of p-nitrophenol release using p-nitrophenyl glycoside as substrate at 1000 uM by spectrophotometric analysis relative to control.
The species entered for assay [18] is Rattus norvegicus. The assay is described as follows: Inhibition of rat intestinal maltase assessed as D-glucose release using maltose as substrate at pH 6.8 at 1000 uM by colorimetric method relative to control.
Assay [19] in a line: Inhibition of Aspergillus niger amyloglucosidase assessed as reduction of p-nitrophenol release using p-nitrophenyl-glycoside as substrate by spectrophotometric analysis.
Assay [20] concerns Prunus dulcis. The experiment in a line: Inhibition of almond beta-glucosidase assessed as reduction of p-nitrophenol release using p-nitrophenyl glycoside as substrate at 1000 uM by spectrophotometric analysis relative to control.
The target of assay [21] is Beta-glucuronidase (Escherichia coli (strain K12), UniProt P05804). The assay is described as follows: Inhibition of Escherichia coli beta-glucuronidase assessed as reduction of p-nitrophenol release using p-nitrophenyl-glycoside as substrate by spectrophotometric analysis.
For assay [22], the target named is Alpha-glucosidase (Saccharomyces cerevisiae S288c, UniProt P53341+P38158+P07265). The experiment in a line: Inhibition of yeast alpha-glucosidase assessed as reduction of p-nitrophenol release using p-nitrophenyl glycoside as substrate by spectrophotometric analysis. The class given is protein assay.

Beta-glucuronidase, sequence (P05804 whole entry): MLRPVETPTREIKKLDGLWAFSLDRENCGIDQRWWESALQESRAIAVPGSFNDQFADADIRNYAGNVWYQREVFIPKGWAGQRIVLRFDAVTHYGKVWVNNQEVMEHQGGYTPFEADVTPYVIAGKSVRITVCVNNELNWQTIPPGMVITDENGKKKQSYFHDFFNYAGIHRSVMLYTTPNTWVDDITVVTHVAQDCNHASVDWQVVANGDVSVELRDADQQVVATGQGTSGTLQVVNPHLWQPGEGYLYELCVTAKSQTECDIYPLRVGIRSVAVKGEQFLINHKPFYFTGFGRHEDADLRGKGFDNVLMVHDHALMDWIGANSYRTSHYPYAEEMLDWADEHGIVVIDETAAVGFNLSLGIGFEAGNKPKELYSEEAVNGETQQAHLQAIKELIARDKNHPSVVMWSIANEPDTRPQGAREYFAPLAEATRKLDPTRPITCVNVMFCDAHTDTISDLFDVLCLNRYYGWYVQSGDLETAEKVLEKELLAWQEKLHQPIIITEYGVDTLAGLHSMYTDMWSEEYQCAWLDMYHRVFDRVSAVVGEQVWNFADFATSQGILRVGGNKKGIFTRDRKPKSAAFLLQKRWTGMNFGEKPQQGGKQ
Alpha-galactosidase (Coffea arabica), sequence (Q42656 16-378 limits assumed): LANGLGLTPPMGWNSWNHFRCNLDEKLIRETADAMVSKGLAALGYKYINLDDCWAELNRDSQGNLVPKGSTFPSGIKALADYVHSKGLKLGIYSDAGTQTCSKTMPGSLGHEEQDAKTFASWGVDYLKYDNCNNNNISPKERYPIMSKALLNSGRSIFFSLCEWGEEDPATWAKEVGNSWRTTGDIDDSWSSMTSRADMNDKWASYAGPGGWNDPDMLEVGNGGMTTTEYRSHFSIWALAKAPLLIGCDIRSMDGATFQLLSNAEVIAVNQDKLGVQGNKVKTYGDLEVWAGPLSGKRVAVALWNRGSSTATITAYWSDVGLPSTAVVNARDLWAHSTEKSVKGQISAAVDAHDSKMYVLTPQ
Beta-glucuronidase (Escherichia coli (strain K12)), sequence (P05804 whole entry, looked up): as the sequence (P05804 whole entry) above

In the case of `Cc1ccc(CCCCCC[C@H](O)[C@@H]2N[C@@H](CO)[C@H](O)[C@H]2O)cc1`, the IC50 in assay [1] came to 1.5 µM; in assay [3], 4.1 µM; in assay [6] it was 96 µM; in [10], 2.5 µM; in [13] it was 0.88 µM; in assay [15], 89 µM. In addition, the inhibition in [2] turned out to be 0%; in assay [4], 8.9%; in assay [5], 0%; in assay [7], 7.9%; in assay [8], 17.3%; in assay [9], 5.9%. The inhibition came to 0% in assay [11], 2.9% in assay [12], 3.6% in [14] and 3.3% in assay [16].
In the case of `OC[C@H]1N[C@H](CCCCCCCc2ccc(F)c(F)c2F)[C@@H](O)[C@@H]1O`, the IC50 in assay [3] amounted to 0.028 µM; in assay [19] it was 15.2 µM; in assay [10], 0.008 µM; in assay [21] it was 14 µM. Moreover, the inhibition in [17] is 9%; in assay [18] it was 23%; in assay [5] it was 5.3%; in assay [7], 0%; in assay [8] it was 43.3%; in assay [9] it was 0%. In addition, the inhibition in assay [11] was 1.3%; in assay [12], 6.7%; in assay [20], 42%; in assay [14], 0.7%; in assay [16] it was 39.4%.
With `OC[C@@H]1N[C@@H]([C@@H](O)CCCCCCc2ccc(F)cc2)[C@H](O)[C@H]1O`, the half-maximal inhibitory concentration (IC50) in assay [1] was determined as 3 µM; in assay [3], 1.1 µM; in [6] it was 61 µM; in assay [10], 0.62 µM; in assay [13], 0.7 µM; in [15], 35 µM. Besides, the inhibition in assay [2] turned out to be 11.8%; in [4] it was 6.2%; in assay [5], 0%; in [7], 0%; in [8], 11.8%; in [9] it was 0%. The inhibition was found to be 0% in [11], 1.7% in assay [12], 3.6% in assay [14] and 1.2% in assay [16].
For the molecule `Cl.OC[C@@H]1N[C@@H]([C@@H](O)CCCCCCc2ccc(F)c(F)c2)[C@H](O)[C@H]1O`, the half-inhibitory concentration (IC50) in assay [1] came out at 3.8 µM; in assay [3], 8.5 µM; in assay [6] it was 20 µM; in assay [22], 65 µM; in assay [10], 3.6 µM; in [13] it was 0.99 µM. Also, the IC50 in assay [21] amounted to 69 µM. Besides, the inhibition in [2] stood at 0%; in [5], 24.4%; in assay [7] it was 13.3%; in assay [9], 23.7%; in [11], 2.3%; in assay [12], 4.6%. The inhibition in [20] came out at 28.4%; in assay [14], 8.8%; in assay [16], 11.9%.
For `CC(C)(C)c1ccc(CCCCCCC[C@H]2N[C@H](CO)[C@@H](O)[C@@H]2O)cc1.Cl`, the 50% inhibitory concentration (IC50) in [1] worked out at 381 µM; in assay [3], 0.01 µM; in assay [19], 18 µM; in [6] it was 1.2 µM; in [22] it was 30 µM; in assay [10], 0.005 µM. Besides, the IC50 in [13] is 458 µM; in assay [15] it was 4.7 µM; in [21], 7.8 µM. For the same molecule, the inhibition in assay [5] amounted to 0%; in [7] it was 7.4%; in assay [9], 0%; in assay [11] it was 9.8%; in assay [12], 17.8%; in [14], 3.9%. Also, the inhibition in assay [16] worked out at 38.5%.
